The test concerns the target Cell division control protein 42 homolog (Homo sapiens) (UniProt P60953). In words: wild-type Cdc42 GTP-binding inhibitors, SAR follow-up, biochemical, bead-based multiplex flow cytometry, additional SAR set (AID 2022). The settings on record: fluorescent GTP binding; for pKi: measured here: Ki for Cdc42 wildtype.

From PubChem BioAssay AID2022 (NMMLSC, 2009) come the findings set out here.

Molecules are shown by their SMILES. pKi: −log10 of the molar value. Calls of active or inactive are those of the source. How the calls were made is not given here.

Chain of Cell division control protein 42 homolog (Homo sapiens) (P60953 whole entry, looked up): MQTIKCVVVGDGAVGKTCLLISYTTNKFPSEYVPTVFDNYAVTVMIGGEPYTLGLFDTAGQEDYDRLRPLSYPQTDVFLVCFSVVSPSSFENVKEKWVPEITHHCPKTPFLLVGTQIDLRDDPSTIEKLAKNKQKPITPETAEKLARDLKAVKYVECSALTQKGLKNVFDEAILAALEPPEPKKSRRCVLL

Take `O=C1C(c2c(O)[nH]c3c(F)cccc23)=Nc2ccccc21`: the EC50 – broadly, the midpoint of the concentration-response curve – is > 30 µM (inactive).

Turning to `O=C1C(c2c(O)[nH]c3ccc(Br)cc23)=Nc2ccccc21`, the EC50 was > 30 µM (inactive).

`O=C1C(c2c(O)[nH]c3c(Br)cccc23)=Nc2ccccc21`: the EC50 was > 30 µM (inactive).

In the case of `O=Nc1c(-c2c(O)[nH]c3c(F)cccc23)[nH]c2ccccc12`, the EC50 entry was “inactive” and the pKi (in general, the negative decadic logarithm of the Ki, by convention in mol/L) is 5.23.

Molecule `CC(C)Cc1ccc([C@H](C)C(=O)O)cc1` showed a pKi of 5.45.

As to `O=Nc1c(-c2c(O)[nH]c3c(Cl)cccc23)[nH]c2ccccc12`, the EC50 is > 30 µM (inactive).

Take `O=C1N=c2ccccc2=C1c1[nH]c(=O)[nH]c1O`: the EC50 was > 30 µM (inactive).

Consider `O=Nc1c(-c2c(O)[nH]c3c(Br)cccc23)[nH]c2ccccc12`, for which the EC50 is > 30 µM (inactive).

Take `O=C1C(c2c(O)[nH]c3ccccc23)=Nc2ccccc21`: the EC50 is > 30 µM (inactive).

`COc1ccc(-c2c(C#N)c(N)n(S(C)(=O)=O)c2C(=O)c2ccccc2)cc1Br`: the pKi is 5.63.

For the molecule `O=Nc1c(-c2c(O)[nH]c3ccc(Br)cc23)[nH]c2ccccc12`, the EC50 is > 30 µM (inactive).

`O=C1C(c2c(O)[nH]c3c(Cl)cccc23)=Nc2ccccc21`: the EC50 result is “inactive” and the pKi is 8.00.

Regarding `N#Cc1c(-c2ccc(Cl)cc2)c(C(=O)c2ccccc2)n(S(=O)(=O)c2ccc([N+](=O)[O-])cc2)c1N`, the pKi was 5.82.

For the molecule `O=C1N=c2ccccc2=C1c1[nH]c(=S)[nH]c1O`, the EC50 is > 30 µM (inactive).

In turn, `COc1ccc(S(=O)(=O)n2c(N)c(C#N)c(-c3cncc(Br)c3)c2C(=O)c2ccccc2)cc1` gave a pKi of 5.32.

As for `O=Nc1c(-c2c(O)[nH]c3ccccc23)[nH]c2ccccc12`, the EC50 was > 30 µM (inactive).
